Earlier results on one molecule are cited in US20240415845A1, “Compositions of Iboga Alkaloids and Methods of Treatment” (priority 2022, published 2024).

The structures appear in SMILES notation.

The conditions of the series: in vivo; cited from earlier work.

As for `CC[C@H]1CC2C[C@H]3c4[nH]c5ccc(O)cc5c4CCN(C2)C13` [noribogaine, Noribogaine], the half-life was 28 to 49 h.
